Experimental data: the NIST ThermoML archive (doi:10.1021/je400252p)
Numbers after ± are expanded uncertainties.

Columns and labels:
[1] = Molar enthalpy of transition or fusion; details: Crystal; DSC
[2] = for mass density / viscosity: 101.33 kPa; for mass density / surface tension liquid-gas / viscosity: Liquid; for mass density: Vibrating tube method; for surface tension liquid-gas: Ring tensiometer
[3] = refractive index (Na D-line) (dimensionless); details: 313 K; 101.33 kPa; Liquid; Standard Abbe refractometry

With `CCCCCC[N+]12CCN(CC1)CC2.O=S(=O)([N-]S(=O)(=O)C(F)(F)F)C(F)(F)F` the “Molar enthalpy of transition or fusion” value [1] was 2.63 ± 0.478 kcal/mol, the mass density ([2]; 313.15 K) was 1355.15 ± 0.54 kg/m3 and the surface tension liquid-gas ([2]; 313.15 K) was 35.62 ± 0.52 mN/m. For the same compound, the viscosity ([2]; 318.15 K) was 190.8 ± 21 mPa·s, the mass density ([2]; 318.15 K) was 1350.93 ± 0.54 kg/m3 and the surface tension liquid-gas ([2]; 318.15 K) was 35.33 ± 0.52 mN/m. The viscosity ([2]; 323.15 K) was 138.1 ± 12 mPa·s, the mass density ([2]; 323.15 K) was 1346.72 ± 0.53 kg/m3 and the surface tension liquid-gas ([2]; 323.15 K) was 35.05 ± 0.52 mN/m. It also gave a viscosity ([2]; 328.15 K) of 107 ± 6.7 mPa·s, a mass density ([2]; 328.15 K) of 1342.51 ± 0.52 kg/m3 and a surface tension liquid-gas ([2]; 328.15 K) of 34.83 ± 0.51 mN/m. For the same compound, the viscosity ([2]; 333.15 K) was 87.6 ± 4.1 mPa·s, the mass density ([2]; 333.15 K) was 1338.29 ± 0.52 kg/m3 and the surface tension liquid-gas ([2]; 333.15 K) was 34.51 ± 0.52 mN/m. For the same compound, the Normal melting temperature ([2]; Crystal, DTA) was 36 ± 1.7 °C, the Glass transition temperature ([2]; Glass, DTA) was -51 ± 5 °C and the refractive index [3] was 1.4379 ± 0.0008.
